The record followed here is patent US20230047224A1 (Biocomposites Limited, priority 2021, published 2023).

The series in a line: In vitro elution of antibiotics from beads into PBS, quantified by LCMS. To be noted: beads in 4 mL PBS at 37° C, 1.5 ml exchanged per time point. The format is physicochemical. The method, then:
Three grams of beads 2 were immersed in 4 mL of sterile phosphate-buffered saline (PBS) at 37° C. At each time point, 1.5 ml of the solution was sampled and replenished with fresh PBS. The samples were then syringe filtered using a 0.2 μm 13 mm PES syringe tilter into 2 mL amber glass vials.
Quantification of eluted antibiotics was measured using a single quadrupole mass spectrometer (MS) coupled to a 1260 infinity II series liquid chromatography stack (LCMS) (Agilent Technologies). Depending on the concentration, samples were analysed either neat or diluted to ensure values fell within the linear range of the standard curves. Concentrations were calculated from peak areas using standard curves developed from dilutions of antibiotic prepared to known concentrations. Separation was conducted with a Poroshell 120-SB-C18 column ([…]).
LCMS conditions were Buffer A was 99.9% H2O, 0.1% Heptafluorobutyric Acid and B was 99.9% Acetonitrile (CAN), 0.1% % Heptafluorobutyric Acid. The gradient was held with 30.0% B for 2 min before increasing linearly to 95.0% over 5 min. The 100% B was maintained for a further 1 min before rapid equilibration in 100% A. The flow rate was constant at 0.3 mL/min.
The gas temperature in the source was 325° C. with a flow rate of 9 L/min. The nebulizer pressure was 35 pounds per square inch and the capillary voltage […]. Fragmentor and collision energy voltages were optimized for each antibiotic.

Regarding tobramycin sulfate, the Elution concentration reads like this: (Day 1) 7046.208 µg/mL; (Day 3) 4693.264 µg/mL; (Day 4) 3130.589 µg/mL; (Day 7) 1972.743 µg/mL; (Day 8) 1058.751 µg/mL; (Day 9) 574.1567 µg/mL. The Elution concentration was determined as 354.742 µg/mL (Day 10); 216.352 µg/mL (Day 11); 135.2563 µg/mL (Day 14); 109.8367 µg/mL (Day 15); 15.486 µg/mL (Day 17); 9.978 µg/mL (Day 18). Moreover, the Elution concentration amounted to 7.125 µg/mL (Day 21); 5.194 µg/mL (Day 22); 3.866 µg/mL (Day 23); 3.277 µg/mL (Day 24); 2.913 µg/mL (Day 25); 2.833 µg/mL (Day 29). In addition, the Elution concentration is, setting by setting: (Day 30) 2.598 µg/mL; (Day 31) 2.454 µg/mL.
